In article PMC6128612, “Prodrugs for colon-restricted delivery: Design, synthesis, and in vivo evaluation of colony stimulating factor 1 receptor (CSF1R) inhibitors” (PLoS ONE, 2018):

Assay: Oral administration of prodrugs to mice: colon, plasma, feces exposure
Format: in vivo
Conditions: mouse; for Prodrug plasma concentration, fold lower than active parent 1 / Prodrug levels in plasma after oral dosing: dose equal to 30 mg/kg of 1
Description: Active Parent–Male CD1 mice (N = 3) received a single oral administration of compound 1 at 30 mg/kg prepared as a nanosuspension in 2% HPC-SL, 0.2% SDS in water and dosed at 10 ml/kg. Active Parent Prodrugs–Male CD1 mice or female C57BL/6 mice (N = 3) received a single oral adminstration of prodrug at 30 mg/kg active parent equivalent in either 10% Cremophor EL + 90% 1% Na-carboxymethylcellulose (NaCMC) at 10 ml/kg or as a nanosuspension in 2% HPC-SL, 0.2% SDS in water at 10 ml/kg.Blood samples were taken over 11 hours, and colon samples were taken at 3, 6 and/or 11 hours post dose. Mice received either Teklad Global Diet 2014 (Envigo Teklad, Madison, WI or LabDiet #5010 (LabDiet, St. Louis, MO).
Due to the inherent risk of fecal or PR-dosed material contaminating true levels of colon tissue exposure, careful flushing of colon tissue for drug analysis was required. Upon necropsy, a section of mouse colon was removed, and flushed with PBS until no visible fecal material was observed. Subsequently, a 1–2 cm section of colon was blotted dry, weighed and snap-frozen in liquid nitrogen.
Colon tissue (~50 mg) was diluted 10x in Veterinary Sterile Water for Irrigation (USP by Abbott), then 1.4 mm zirconium oxide beads were added and tissue was homogenized using an Omni Bead Ruptor 24 (Omni International, Kennesaw, GA). Aliquots of colon homogenate samples and a set of colon standards were pipetted in 96-well plates and subjected to protein precipitation extraction (with acetonitrile + internal standard) on a Microlab Star robot (Hamilton Robotics, Reno, NV). Plates were then mixed on a MixMate (Eppendorf, Hamburg, Germany) for 1 min at 1600 rpm and centrifuging for 5 min at 4000 rpm in 5810 R Centrifuge (Eppendorf, Hamburg, Germany). Supernatant was transferred into new plates and diluted with LC-MS/MS mobile phase.
Spiked standards were prepared in the appropriate matrices. All unknown samples and spiked standards were combined with acetonitrile containing internal standard, vortexed, and centrifuged to pellet the proteins. Supernatants were used for subsequent analysis by LC-MS/MS. The mobile phase consisted of acetonitrile with 0.1% formic acid, and water with 0.1% formic acid at a flow rate of 0.8 mL/min. Analytes were separated using reverse phase chromatography with a fast gradient on a 30 x 2.1 mm Fortis C18 Pace […] column, prior to analysis on a Sciex API5500™ mass spectrometer. Peak areas were determined using Sciex Analyst™ 1.6 software. Actual concentrations were calculated by regression analysis of the peak area ratio (parent / internal standard) of the spiked standards versus concentration.

Row | SMILES | Prodrug plasma concentration, fold lower than active parent 1 | Plasma versus colon levels of active parent 1 after oral prodrug (dose equal to 30 mg/kg of 1, 3 and 11 h) | Prodrug levels in plasma after oral dosing
1 | CC(C)C(N)C(=O)OC1CCC(n2cc(Nc3nc(C4CCCCC4)cn4ncnc34)cn2)CC1 [Compound 8, (R)-(1r,4r)-4-(4-((6-Cyclohexyl-[1,2,4]triazolo[1,5-a]pyrazin-8-yl)amino)-1H-pyrazol-1-yl)cyclohexyl 2-amino-3-methylbutanoate] | ~ 10 x | significantly higher plasma versus colon drug levels | –
2 | OCC1OC(OC2CCC(n3cc(Nc4nc(C5CCCCC5)cn5ncnc45)cn3)CC2)C(O)C(O)C1O [Compound 9, (2R,3R,4S,5S,6R)-2-(((1r,4r)-4-(4-((6-Cyclohexyl-[1,2,4]triazolo[1,5-a]pyrazin-8-yl)amino)-1H-pyrazol-1-yl)cyclohexyl)oxy)-6-(hydroxymethyl)tetrahydro-2H-pyran-3,4,5-triol] | ~ 100 x | – | –
3 | OCC1OC(OC2CCC(n3cc(Nc4nc(C5CCCCC5)cn5ncnc45)cn3)CC2)C(O)C(O)C1O [Compound 10, (2S,3R,4S,5S,6R)-2-(((1r,4s)-4-(4-((6-cyclohexyl-[1,2,4]triazolo[1,5-a]pyrazin-8-yl)amino)-1H-pyrazol-1-yl)cyclohexyl)oxy)-6-(hydroxymethyl)tetrahydro-2H-pyran-3,4,5-triol] | – | – | no measureable plasma levels
4 | O=C(O)C1OC(OC2CCC(n3cc(Nc4nc(C5CCCCC5)cn5ncnc45)cn3)CC2)C(O)C(O)C1O [Compound 11, (2S,3S,4S,5R,6R)-6-(((1r,4r)-4-(4-((6-Cyclohexyl-[1,2,4]triazolo[1,5-a]pyrazin-8-yl)amino)-1H-pyrazol-1-yl)cyclohexyl)oxy)-3,4,5-trihydroxytetrahydro-2H-pyran-2-carboxylic acid] | – | – | no measureable plasma levels
